Test results: ChEMBL document CHEMBL6087454, “Identification of Novel Organo-Se BTSA-Based Derivatives as Potent, Reversible, and Selective PPARγ Covalent Modulators for Antidiabetic Drug Discovery” (J Med Chem, 2025)
Calls of active or inactive are those of the source. The calls are words filed in the database; no cut-off is given here.

Key:
3T3-L1 [1] = assay: Insulin sensitizing activity in mouse 3T3-L1 cells assessed as upregulation of adiponectin gene expression at 1 uM measured after 48 hrs by RT-qPCR analysis; type: functional, cell-based
[2] = biological target: T1, Peroxisome proliferator-activated receptor gamma (Homo sapiens, UniProt P37231); assay: Displacement of fluormone pan-PPAR green from recombinant GST-tagged human PPAR-gamma ligand binding domain (E235 to Y505 residues) extracted from Escherichia coli BL21 (DE3) cells by TR-FRET assay
T1 sequence (P37231 whole entry): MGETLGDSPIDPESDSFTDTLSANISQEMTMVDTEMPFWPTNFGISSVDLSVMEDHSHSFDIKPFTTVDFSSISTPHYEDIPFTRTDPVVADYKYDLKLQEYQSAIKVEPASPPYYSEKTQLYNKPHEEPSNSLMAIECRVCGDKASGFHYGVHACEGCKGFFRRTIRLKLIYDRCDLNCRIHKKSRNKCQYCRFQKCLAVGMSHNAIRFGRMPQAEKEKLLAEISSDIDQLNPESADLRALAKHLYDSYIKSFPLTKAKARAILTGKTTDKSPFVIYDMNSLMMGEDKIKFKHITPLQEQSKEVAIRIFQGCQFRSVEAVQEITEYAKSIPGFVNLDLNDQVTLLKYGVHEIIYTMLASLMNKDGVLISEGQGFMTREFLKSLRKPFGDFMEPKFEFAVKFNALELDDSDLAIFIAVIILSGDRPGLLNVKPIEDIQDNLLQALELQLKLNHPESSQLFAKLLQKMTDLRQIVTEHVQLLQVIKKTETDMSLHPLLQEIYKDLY

[3] = biological target: T1, Peroxisome proliferator-activated receptor gamma; assay: Binding affinity to recombinant GST-tagged human PPAR-gamma ligand binding domain (E235 to Y505 residues) extracted from Escherichia coli BL21 (DE3) cells assessed as inhibition constant in presence of fluormone pan-PPAR green tracer by TR-FRET assay
[4] = biological target: T2, Peroxisome proliferator-activated receptor gamma (Homo sapiens) (UniProt P37231); assay: Partial agonist activity at recombinant GST-tagged human PPAR-gamma ligand binding domain (E235 to Y505 residues) extracted from Escherichia coli BL21 (DE3) cells by TR-FRET assay; conditions: filed as partial agonist
T2 sequence (whole entry): T1 sequence (P37231 whole entry)

Homo sapiens = species on record: Homo sapiens; assay: Binding affinity to PPAR-beta (unknown origin) at 0.5 uM in presence of fluormone pan-PPAR green tracer by TR-FRET assay
[5] = biological target: T3, Peroxisome proliferator-activated receptor delta (Homo sapiens) (UniProt Q03181); assay: Binding affinity to PPAR-delta (unknown origin) at 0.5 uM in presence of fluormone pan-PPAR green tracer by TR-FRET assay
T3 sequence (whole entry): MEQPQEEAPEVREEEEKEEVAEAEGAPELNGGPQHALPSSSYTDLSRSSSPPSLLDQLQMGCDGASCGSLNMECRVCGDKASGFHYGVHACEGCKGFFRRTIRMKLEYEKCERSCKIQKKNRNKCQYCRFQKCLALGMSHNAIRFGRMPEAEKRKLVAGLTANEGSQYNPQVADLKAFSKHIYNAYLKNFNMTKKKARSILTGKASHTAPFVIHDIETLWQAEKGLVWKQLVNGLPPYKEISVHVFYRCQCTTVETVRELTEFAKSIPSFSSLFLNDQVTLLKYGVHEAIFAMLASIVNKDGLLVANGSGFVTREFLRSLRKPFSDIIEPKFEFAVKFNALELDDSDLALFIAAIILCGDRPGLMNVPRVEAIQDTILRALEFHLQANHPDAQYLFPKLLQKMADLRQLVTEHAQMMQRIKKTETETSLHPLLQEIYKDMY

[6] = biological target: T2, Peroxisome proliferator-activated receptor gamma (Homo sapiens); assay: Reversible covalent binding affinity to full-length human PPAR-gamma transfected in […] cells at 5 to 60 nM preincubated for 6 hrs followed by rosiglitazone addition and measured after 24 hrs by Firefly and Renilla-Glo luciferase reporter assay; type: cell-based; conditions: filed as partial agonist, dose 5-60 nM, time 30.0 hrs
3T3-L1 [7] = assay: Inhibition of adipocyte differentiation in mouse 3T3-L1 cells assessed as reduction in lipid accumulation at 1 uM measured after 48 hrs by Oil red O staining based inverted microscopic analysis; type: functional, cell-based
3T3-L1 [8] = assay: Inhibition of adipogenesis in mouse 3T3-L1 cells assessed as downregulation of aP2 gene expression at 1 uM measured after 48 hrs by RT-qPCR analysis; type: functional, cell-based
3T3-L1 [9] = assay: Inhibition of adipogenesis in mouse 3T3-L1 cells assessed as downregulation of FASN gene expression at 1 uM measured after 48 hrs by RT-qPCR analysis; type: functional, cell-based
3T3-L1 [10] = assay: Inhibition of adipogenesis in mouse 3T3-L1 cells assessed as downregulation of C/EBPalpha gene expression at 1 uM measured after 48 hrs by RT-qPCR analysis; type: functional, cell-based
3T3-L1 [11] = assay: Insulin sensitizing activity in mouse 3T3-L1 cells assessed as downregulation of SOCS3 gene expression at 1 uM measured after 48 hrs by RT-qPCR analysis; type: functional, cell-based
[12] = Toxicity in male db/db mouse model assessed as effect on spleen weight at 2.5 to 10 mg/kg/day, ip administered for 4 weeks; type: organism-based; conditions: in vivo, 672 h, dose 2.5-10 mg/kg/day
[13] = Toxicity in male db/db mouse model assessed as effect on kidney weight at 2.5 to 10 mg/kg/day, ip administered for 4 weeks; type: organism-based; conditions: in vivo, 672 h, dose 2.5-10 mg/kg/day
[14] = Toxicity in male db/db mouse model assessed as increase in white adipose tissue weight at 2.5 to 10 mg/kg/day, ip administered for 4 weeks; type: organism-based; conditions: in vivo, 672 h, dose 2.5-10 mg/kg/day
[15] = Toxicity in male db/db mouse model assessed as increase in brown adipocytes size at 2.5 to 10 mg/kg/day, ip administered for 4 weeks by H and E staining based analysis; type: organism-based; conditions: in vivo, 672 h, dose 2.5-10 mg/kg/day
Mus musculus [16] = assay: In vivo inhibition of Erk/Cdk5-mediated PPAR-gamma phosphorylation at Ser273 residue in male db/db mouse model assessed as decrease in phosphorylated-MEK expression in liver at 2.5 to 10 mg/kg/day, ip administered for 4 weeks by Western blotting analysis; type: functional, organism-based; conditions: dose 2.5-10 mg/kg/day
Mus musculus [17] = assay: Downregulation of PPAR-gamma protein expression in male db/db mouse white adipose tissue at 2.5 to 10 mg/kg/day, ip administered for 4 weeks by Western blotting analysis; type: functional, organism-based; conditions: dose 2.5-10 mg/kg/day
Mus musculus [18] = assay: Effect on cdk5 protein expression in male db/db mouse liver at 2.5 to 10 mg/kg/day, ip administered for 4 weeks by Western blotting analysis; type: functional, organism-based; conditions: dose 2.5-10 mg/kg/day
Mus musculus [19] = assay: Effect on pRb protein expression in male db/db mouse liver at 2.5 to 10 mg/kg/day, ip administered for 4 weeks by Western blotting analysis; type: functional, organism-based; conditions: dose 2.5-10 mg/kg/day
Mus musculus [20] = assay: Antidiabetic activity in male db/db mouse model assessed as upregulation of Glut4 gene expression in white adipose tissue at 2.5 to 10 mg/kg/day, ip administered for 4 weeks by RT-qPCR analysis; type: functional, organism-based; conditions: dose 2.5-10 mg/kg/day
Mus musculus [21] = assay: Antidiabetic activity in male db/db mouse model assessed as downregulation of PTP1B gene expression in white adipose tissue at 2.5 to 10 mg/kg/day, ip administered for 4 weeks by RT-qPCR analysis; type: functional, organism-based; conditions: dose 2.5-10 mg/kg/day
Mus musculus [22] = assay: Antidiabetic activity in male db/db mouse model assessed as downregulation of PPARgamma gene expression in white adipose tissue at 2.5 to 10 mg/kg/day, ip administered for 4 weeks by RT-qPCR analysis; type: functional, organism-based; conditions: dose 2.5-10 mg/kg/day

Compound: Cc1ccc(S(=O)(=O)Oc2ccc(S3(=O)=N[Se]c4cc(OS(=O)(=O)c5ccc(C)cc5)ccc43)cc2)cc1 (stereo not drawn)
- Activity (3T3-L1 [1]): Active
- IC50 [2]: 346 nM
- Ki [3]: 124 nM
- Activity [4]: Active
- Activity (Homo sapiens): inactive
- Activity [5]: inactive
- Activity [6]: Active
- inhibition (3T3-L1 [7]): Active
- inhibition (3T3-L1 [8]): Active
- inhibition (3T3-L1 [9]): Active
- inhibition (3T3-L1 [10]): Active
- Activity (3T3-L1 [11]): Active
- Activity [12]: Non-toxic
- Activity [13]: Non-toxic
- Activity [14]: Non-toxic
- Activity [15]: Non-toxic
- inhibition (Mus musculus [16]): Active
- Activity (Mus musculus [17]): Active
- Activity (Mus musculus [18]): inactive
- Activity (Mus musculus [19]): inactive
- Activity (Mus musculus [20]): Active
- Activity (Mus musculus [21]): Active
- Activity (Mus musculus [22]): Active
